Results on 2 compounds are retold here after patent US20130017272A1, “METHOD FOR TREATING NON-SMALL CELL LUNG CANCER” (priority 2011, published 2013).

For data set [1] the following is noted: cited from earlier work.
A further data set has as its system NSCLC. The settings on record: 2nd line setting, from reports; cited from earlier work.
The next data set deals with CYP3A4 (Homo sapiens, UniProt P08684). The settings on record: cited from earlier work.
The subject of another data set is stage IIIB or IV NSCLC. Put plainly: Phase 1-2 study of weekly custirsen plus a gemcitabine/platinum-based regimen: survival by baseline serum clusterin. The data set is classed as in vivo, human. Here is the method: The relationship between serum clusterin levels and the duration of individual survival was evaluated during a phase 1-2 study of weekly custirsen plus a gemcitabine/platinum-based regimen in patients with stage IIIB or IV NSCLC. Not all of the patients in this study had baseline levels of clusterin measured. However, starting with N=69 subjects with measured baseline clusterin levels, fitting the Cox proportional hazards (PH) model with baseline clusterin as sole predictor gives p=0.10; the coefficient is positive, so that higher clusterin is associated with increased survival risk. Among the N=55 subjects who also had post-baseline data collected, fitting the same PH model gives p=0.05, again with positive coefficient.
A careful search for possible cutpoints, using all N=69 subjects with baseline clusterin levels, produced 71 μg/mL as a strong candidate.
Among all N=69 subjects with a baseline clusterin level, there were […] with clusterin ≦71 μg/mL (median survival time was 18.8 months), and N=26 subjects with baseline clusterin >71 μg/mL (median survival time was 10.2 months); the log-rank p-value=0.004. Removing the N=14 early discontinuers leaves N=35 subjects with baseline clusterin ≦71 μg/mL (median survival time was 28.7 months), and N=20 subjects with baseline clusterin >71 μg/mL (median survival time was 12.2 months); the log-rank p-value=0.0002.

The conditions of data set [2]: in vivo.
Method: Three doses of 640 mg custirsen are administered IV during the Loading Dose Period (Days −9 to −1). There is at least one “non-infusion” day between each administration of custirsen (i.e. every other day) during the Loading Dose Period and between the third loading dose of custirsen and Day 1 of Cycle 1. The day prior to Day 1 of Cycle 1 (Day 0) is a “no treatment” day. There are no more than 4 days between the last loading dose and Day 1 of Cycle 1. A common schedule is to give the three loading doses of custirsen on Monday, Wednesday and Friday with Day 1, Cycle 1 starting on the following Monday. Up to nine days are allowed for completing the three loading doses prior to Day 0 to account for clinic visits, weekends, and holidays. Subjects receive each dose of custirsen as a 2 hour infusion.
The subject of another data set is clusterin. Particulars: broad range of studies (Miyake et al. 2005); cited from earlier work.
Data set [3] has as its system cancerous human prostate, breast, ovarian, lung, renal, bladder, and melanoma cells. Particulars: broad range of studies (Miyake et al. 2005); cited from earlier work.

Read-outs that look alike come from different tables or passages of the source. Strand notation (5' to 3'): a small letter for the sugar, then the base; units joined by * are phosphorothioate-linked, units joined directly phosphodiester-linked; [ ] holds rarer units or linkages, { } end groups; capitals alone tell only the bases. e = 2'-O-(2-methoxyethyl) (MOE); [5mC] = 5-methylcytosine; d = 2'-deoxy (DNA)

Sequence of CYP3A4 (P08684 whole entry): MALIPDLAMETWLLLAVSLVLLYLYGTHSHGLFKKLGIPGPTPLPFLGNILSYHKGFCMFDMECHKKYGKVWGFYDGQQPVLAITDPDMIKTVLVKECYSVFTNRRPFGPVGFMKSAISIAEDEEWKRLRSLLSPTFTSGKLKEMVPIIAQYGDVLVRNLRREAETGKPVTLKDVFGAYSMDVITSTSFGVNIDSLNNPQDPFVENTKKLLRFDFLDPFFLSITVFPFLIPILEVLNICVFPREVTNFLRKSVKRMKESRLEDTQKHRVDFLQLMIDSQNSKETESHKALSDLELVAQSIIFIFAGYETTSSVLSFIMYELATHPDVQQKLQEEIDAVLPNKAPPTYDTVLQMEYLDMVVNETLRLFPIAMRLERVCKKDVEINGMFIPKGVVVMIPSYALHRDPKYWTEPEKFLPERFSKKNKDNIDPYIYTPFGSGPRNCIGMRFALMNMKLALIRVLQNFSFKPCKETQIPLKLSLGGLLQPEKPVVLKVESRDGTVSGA

For `CC(=O)O[C@@]12CO[C@@H]1C[C@H](O)[C@@]1(C)C(=O)[C@H](O)C3=C(C)[C@@H](OC(=O)[C@H](O)[C@@H](NC(=O)OC(C)(C)C)c4ccccc4)C[C@@](O)([C@@H](OC(=O)c4ccccc4)[C@H]21)C3(C)C` [Docetaxel], the “patients with grade 4 neutropenia (<500 cells/mm^3)” value in data set [1] (60 mg/m^2) is on record as 75%; in data set [1] (100 mg/m^2) it was 85%. The “patients with neutropenia (<2,000 neutrophils/mm^3)” value in data set [1] (60-100 mg/m^2) is listed as “virtually all”. Also, the “median PFS” value in the data set with NSCLC was “about 3 months”. For the same compound, at CYP3A4, the CYP3A4 substrate result is recorded as “substrate”.

With “custirsen: anti-clusterin antisense oligonucleotide CAGCAGCAGAGTCTTCATCAT, phosphorothioate backbone, 2′-O-methoxyethyl at nucleotides 1-4 and 18-21, 5-methylcytosines at 1, 4, 19 (antisense e[5mC]*eA*eG*e[5mC]*dA*dG*dC*dA*dG*dA*dG*dT*dC*dT*dT*dC*dA*eT*e[5mC]*eA*eT; listed as Homo sapiens)”, the median survival time in the data set with stage IIIB or IV NSCLC (baseline clusterin >71 μg/mL, N=20, early discontinuers removed) is on record as 12.2 months; in the data set on stage IIIB or IV NSCLC (baseline clusterin >71 μg/mL, N=26 of all N=69 subjects), 10.2 months; with stage IIIB or IV NSCLC (baseline clusterin ≦71 μg/mL, N=35, early discontinuers removed), 28.7 months; with stage IIIB or IV NSCLC (baseline clusterin ≦71 μg/mL, N=45 of all N=69 subjects), 18.8 months. Besides, in data set [2], the “subjects with grade 1-2 constitutional symptoms (e.g., fever and chills)” value is 50-60%. Further, the expression of clusterin entry in the data set on clusterin was “potently reduces”. Besides, in data set [3], the “sensitization of cancer cells to chemotherapy” value is given as “sensitizes”.
